{"source": "paper PMC12297997", "about": "“Differential Emodepside Efficacy in Drug-Resistant and Drug-Susceptible Ancylostoma caninum Highlights Variability in Potassium Channel Activity” (Tropical Medicine and Infectious Disease, 2025)", "key": {"[1]": {"tested_on": "Ancylostoma caninum L3, drug-susceptible (WMD) isolate", "assay": "In vitro L3 larval survival assay, drug-susceptible WMD isolate", "assay_type": "cell-based", "description": "(§1) The wild-type (WMD) and triple-anthelmintic-resistant (BCR) isolates of A. caninum used in this study have been previously described. […] Both isolates were maintained in beagles according to established protocols.\n(§2) Stock solutions of pyrantel, ivermectin, and emodepside were prepared in appropriate solvent mixtures of DMSO and BU buffer (50 mM Na2HPO4, 22 mM KH2PO4, 70 mM NaCl, pH 6.8). To account for solubility differences, pyrantel was prepared in 20% DMSO, ivermectin in 4% DMSO, and emodepside in 25% DMSO. Penitrem A was dissolved in 100% DMSO to make a 500 µM stock solution. A vehicle control solution was also prepared for each drug, containing the maximum DMSO concentration used in the stock solutions to ensure that solvent effects across treatments were adequately controlled.\n(§3) Infective A. caninum L3 were collected from coproculture at least 7 days post-culture using a modified Baermann method and stored in BU in a 50 mL culture flask at room temperature for up to four weeks prior to use. The survival assay to evaluate the response of A. caninum L3 to various anthelmintics was adapted from a previously established motility assessment study.\n(§4) Prior to use, L3 were surface sterilized by incubation in 1% (v/v) HCl for 30 min, followed by two washes with sterile BU buffer. The sterilized larvae were resuspended in BU to a concentration of 75 L3 per 90 µL. Larvae were transferred in aliquots of 90 µL to individual wells in a 96-well plate, and 10 µL of the appropriate drug or control solution was added to each well, bringing the final volume to 100 µL. Plates were incubated at room temperature in the dark for 24 h.\n(§5) Following incubation, survival was assessed by adding 50 microliters of 50° C water to each well immediately before counting. […] For each well, the total number of living and dead L3 were counted, and percent survival was calculated as below:(1) Survival (%)=[…]\n(§6) Microsoft Excel was used to normalize raw survival percentages to their respective controls and calculate standard deviation for each condition. Statistical analysis was performed using GraphPad Prism (ver. 10, GraphPad Software, La Jolla, CA, USA). Using the mean, standard deviation, and sample size calculated in Excel, multiple unpaired t-tests were performed to determine the individual variance in means between WMD and BCR."}, "[2]": {"tested_on": "Ancylostoma caninum L3, triple-anthelmintic-resistant (BCR) isolate", "assay": "In vitro L3 larval survival assay, triple-anthelmintic-resistant BCR isolate", "assay_type": "cell-based", "settings": "for Difference in mean survival between BCR and WMD: BCR versus WMD L3, across all tested concentrations (4–40 µg/mL), two-tailed unpaired t-test, p < 0.0001", "description": "as §1, §2, §3, §4, §5, §6"}, "[3]": {"settings": "cited from earlier work; for Corresponding Cmax: po"}, "MADR A. caninum": {"tested_on": "MADR A. caninum", "parameters": "method as in PMID 36520649", "settings": "dogs infected with MADR A. caninum; cited from earlier work"}, "[4]": {"settings": "stated without reference; cited from earlier work"}, "[5]": {"tested_on": "Ancylostoma caninum L3, drug-susceptible (WMD) isolate", "assay": "Emodepside + penitrem A survival assay (SLO-1 modulation), WMD isolate", "assay_type": "cell-based", "settings": "0.25 µM penitrem A + emodepside 7.5 µg/mL, 24 h, mean ± SD", "description": "as §4, §5\n(§7) To further investigate the specific mechanism of emodepside action, the SLO-1 channel inhibitor penitrem A was co-incubated with emodepside. The concentration of emodepside was kept constant (7.5 µg/mL) while that of penitrem A was titrated from 1 µM to 0.05 µM. […] Survival was assessed as above.\nas §6, with “Statistical analysis was performed using GraphPad Prism (ver. 10, GraphPad Software, La Jolla, CA, USA).” left out"}, "[6]": {"tested_on": "Ancylostoma caninum L3, triple-anthelmintic-resistant (BCR) isolate", "assay": "Emodepside + penitrem A survival assay (SLO-1 modulation), BCR isolate", "assay_type": "cell-based", "settings": "0.25 µM penitrem A + emodepside 7.5 µg/mL, 24 h, mean ± SD", "description": "as §4, §5, §7\nas §6, with “Statistical analysis was performed using GraphPad Prism (ver. 10, GraphPad Software, La Jolla, CA, USA).” left out"}}, "note": "Read-outs that look alike come from different tables or passages of the source.", "data": [{"molecule": "CN1CCCN=C1/C=C/c1cccs1", "note": "[Pyrantel, pyrantel pamoate]", "values": [{"measurement": "Percent survival of L3, normalized to vehicle control", "setting": "[1]; 100 µg/mL, 24 h, room temperature, dark, mean ± SD", "result": "43.9±13.7", "unit": "%"}, {"measurement": "Mortality of L3", "setting": "[1]; 10–50 µg/mL, 24 h", "result": "almost no mortality"}, {"measurement": "Percent survival of L3, normalized to vehicle control", "setting": "[2]; BCR L3, 100 µg/mL, 24 h, room temperature, dark, mean ± SD, difference to WMD not significant (p = 0.054)", "result": "59.2±10.4", "unit": "%"}, {"measurement": "Mortality of L3", "setting": "[2]; BCR L3, 10–50 µg/mL, 24 h", "result": "almost no mortality"}, {"measurement": "Cmax", "setting": "[3]; in vivo, 100 mg/kg", "result": 110, "unit": "ng/mL"}, {"measurement": "Corresponding Cmax", "setting": "[3]; in vivo", "result": 110, "unit": "ng/mL"}]}, {"molecule": "emodepside", "values": [{"measurement": "Percent survival of L3, normalized to vehicle control", "setting": "[1]; 7.5 µg/mL, 24 h, mean ± SD", "result": "13.1% ± 4.1"}, {"measurement": "Percent survival of L3, normalized to vehicle control", "setting": "[1]; 30 µg/mL (maximum dose tested), 24 h, mean ± SD", "result": "3.4% ± 3.3"}, {"measurement": "IC50 (nonlinear regression of percent survival vs log concentration)", "setting": "[1]; 24 h survival", "result": 2.81, "unit": "µg/mL"}, {"measurement": "Surviving L3", "setting": "[2]; BCR L3, 30 µg/mL (maximum dose tested), 24 h", "result": "none"}, {"measurement": "IC50 (nonlinear regression of percent survival vs log concentration)", "setting": "[2]; BCR L3, 24 h survival", "result": 1.77, "unit": "µg/mL"}, {"measurement": "Percent survival of L3", "setting": "[2]; BCR L3, starting at 7.5 µg/mL, 24 h", "result": "killed all BCR larvae"}, {"measurement": "Difference in percent survival between WMD and BCR", "setting": "[2]; WMD versus BCR L3, 3 µg/mL (greatest difference)", "result": "21.8±4.4"}, {"measurement": "Greater effectiveness than drugs from other classes in reducing fecal egg count", "setting": "MADR A. caninum", "result": "at least 50%"}, {"measurement": "Corresponding Cmax", "setting": "[3]; in vivo", "result": 37, "unit": "ng/mL"}]}, {"molecule": "ivermectin", "values": [{"measurement": "Normalized survival of L3", "setting": "[1]; low dose 4 µg/mL, 24 h, room temperature, dark, mean ± SD", "result": "14.9±9.7", "unit": "%"}, {"measurement": "Normalized survival of L3", "setting": "[2]; BCR L3, low dose 4 µg/mL, 24 h, room temperature, dark, mean ± SD", "result": "54.2±11.4", "unit": "%"}, {"measurement": "Difference in mean survival between BCR and WMD", "setting": "[2]", "result": "39.0 ± 3.0", "unit": "%"}, {"measurement": "Difference in mean survival between BCR and WMD", "setting": "[2]; listed as ivermectin", "result": "approximately 40%"}, {"measurement": "Aqueous solubility", "setting": "[4]", "result": "< 10", "unit": "µg/mL"}, {"measurement": "Cmax", "setting": "[3]; typical therapeutic dose 150–200 mg/kg, single oral administration", "result": "38 to 46", "unit": "ng/mL"}]}, {"molecule": "penitrem A", "values": [{"measurement": "Percent survival of L3 co-incubated with emodepside", "setting": "[5]", "result": "29.8% ± 11.5"}, {"measurement": "Percent survival of L3 co-incubated with emodepside", "setting": "[6]", "result": "78.2% ± 13.8"}]}]}
